Experimental data published in ChEMBL document CHEMBL1201862, “PubChem BioAssay data set” (2004).
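Dose response: 5 concentrations. Exposure: 48 h. Format: 96-well plates. Endpoint: linear interpolation; highest concentration if not reached. At the GI50, growth is halved.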 The source made the active and inactive calls. Rule as the data show it: active = GI50 up to about 1.1 µM and inactive = higher.

How the values were obtained:
Test in all cases: growth of human tumour cells (NCI), 48 h
786-0 = tested on: 786-0
MOLT-4 = tested on: MOLT-4
UACC-62 = tested on: UACC-62
HCT-116 = tested on: HCT-116
DLD-1 = tested on: DLD-1
SNB-19 = tested on: SNB-19
SF-268 = tested on: SF-268
SK-MEL-5 = tested on: SK-MEL-5
NCI-H23 = tested on: NCI-H23
A549 = tested on: A549
OVCAR-3 = tested on: OVCAR-3
CAKI-1 = tested on: CAKI-1
Malme-3M = tested on: Malme-3M
HOP-92 = tested on: HOP-92
K562 = tested on: K562
NCI-H522 = tested on: NCI-H522
MDA-MB-435 = tested on: MDA-MB-435
Hs-578T = tested on: Hs-578T
BT-549 = tested on: BT-549
MDA-MB-231 = tested on: MDA-MB-231

Compound	GI50 (786-0)	GI50 (MOLT-4)	GI50 (UACC-62)	GI50 (HCT-116)	GI50 (DLD-1)	GI50 (SNB-19)	GI50 (SF-268)	GI50 (SK-MEL-5)	GI50 (NCI-H23)	GI50 (A549)	GI50 (OVCAR-3)	GI50 (CAKI-1)	GI50 (Malme-3M)	GI50 (HOP-92)	GI50 (K562)	GI50 (NCI-H522)	GI50 (MDA-MB-435)	GI50 (Hs-578T)	GI50 (BT-549)	GI50 (MDA-MB-231)
CCOC(=O)C12CC1(C(=O)OCC)C1CCC2C1 (stereo not drawn)	> 100 µM (inactive)	90.6 µM (inactive)	> 100 µM (inactive)	> 100 µM (inactive)	> 100 µM (inactive)	> 100 µM (inactive)	> 100 µM (inactive)	54.1 µM (inactive)	> 100 µM (inactive)	> 100 µM (inactive)	97.3 µM (inactive)	> 100 µM (inactive)	91.8 µM (inactive)	23.8 µM (inactive)	68.5 µM (inactive)	–	–	–	–	–
O/N=C1/C(=C/c2ccc(F)cc2)CCCC1C(NO)c1ccc(F)cc1 (stereo not drawn)	76.2 µM (inactive)	22.3 µM (inactive)	34.4 µM (inactive)	30 µM (inactive)	65.2 µM (inactive)	52.4 µM (inactive)	23.2 µM (inactive)	19 µM (inactive)	16.6 µM (inactive)	32.9 µM (inactive)	23.7 µM (inactive)	62.7 µM (inactive)	26.7 µM (inactive)	–	29.1 µM (inactive)	17.5 µM (inactive)	–	–	–	–
O=P1(Oc2ccc(Cl)cc2Cl)Oc2ccc3ccccc3c2-c2c(ccc3ccccc23)O1	–	19.9 µM (inactive)	26.7 µM (inactive)	26.5 µM (inactive)	32.1 µM (inactive)	29.5 µM (inactive)	34.7 µM (inactive)	49.5 µM (inactive)	29.8 µM (inactive)	49 µM (inactive)	22.5 µM (inactive)	21 µM (inactive)	21.9 µM (inactive)	22.4 µM (inactive)	31.4 µM (inactive)	19.5 µM (inactive)	–	–	–	–
O=C1CCCn2c3ccccc3c3ccnc1c32	–	30.8 µM (inactive)	29.2 µM (inactive)	30.1 µM (inactive)	38.3 µM (inactive)	47.3 µM (inactive)	30 µM (inactive)	34 µM (inactive)	50 µM (inactive)	44.6 µM (inactive)	37.7 µM (inactive)	17.3 µM (inactive)	35.1 µM (inactive)	> 62.8 µM (inactive)	40.5 µM (inactive)	34.8 µM (inactive)	–	–	–	–
C/C(=C1/N=C(c2cc([N+](=O)[O-])ccc2Cl)N(C2=CC=C(Cl)CC2)C1=O)c1cc2ccccc2oc1=O	–	54.6 µM (inactive)	29.2 µM (inactive)	37.4 µM (inactive)	20 µM (inactive)	44.1 µM (inactive)	36.9 µM (inactive)	24.3 µM (inactive)	14.4 µM (inactive)	27.9 µM (inactive)	36.8 µM (inactive)	32.7 µM (inactive)	28.5 µM (inactive)	–	> 100 µM (inactive)	14.4 µM (inactive)	–	–	–	–
Nc1cc2c(cc1[N+](=O)[O-])[nH]c1c(-c3ccccc3)nccc12	–	4.43 µM (inactive)	13.6 µM (inactive)	15.3 µM (inactive)	8.2 µM (inactive)	23.8 µM (inactive)	25.2 µM (inactive)	13.5 µM (inactive)	18.7 µM (inactive)	17.4 µM (inactive)	19.1 µM (inactive)	–	17.4 µM (inactive)	12 µM (inactive)	7.57 µM (inactive)	12 µM (inactive)	–	–	–	–
O=c1c2ccccc2sc2nc(O)nn12	> 100 µM (inactive)	> 100 µM (inactive)	> 100 µM (inactive)	> 100 µM (inactive)	> 100 µM (inactive)	> 100 µM (inactive)	> 100 µM (inactive)	> 100 µM (inactive)	> 100 µM (inactive)	> 100 µM (inactive)	> 100 µM (inactive)	> 100 µM (inactive)	> 100 µM (inactive)	> 100 µM (inactive)	> 100 µM (inactive)	–	–	–	–	–
COC(=O)C1=C(C)N(NC(=O)c2ccccc2)C2(O)CCCC(=O)C12C (stereo not drawn)	–	–	> 100 µM (inactive)	> 100 µM (inactive)	> 100 µM (inactive)	> 100 µM (inactive)	–	> 100 µM (inactive)	> 100 µM (inactive)	> 100 µM (inactive)	> 100 µM (inactive)	> 100 µM (inactive)	> 100 µM (inactive)	> 100 µM (inactive)	–	> 100 µM (inactive)	–	–	–	–
COc1ccc(/C(=N\NC(=O)NN)C(c2ccc(OC)cc2)C2(O)C(=O)Nc3c(Cl)cc(Cl)cc32)cc1 (stereo not drawn)	61.4 µM (inactive)	5.93 µM (inactive)	> 100 µM (inactive)	56.8 µM (inactive)	> 100 µM (inactive)	> 100 µM (inactive)	> 100 µM (inactive)	> 100 µM (inactive)	> 100 µM (inactive)	> 100 µM (inactive)	> 100 µM (inactive)	–	> 100 µM (inactive)	> 100 µM (inactive)	–	–	–	–	–	–
Cc1cccc2c1C(=O)OC2(c1cccc2ccccc12)c1cccc2ccccc12	52.8 µM (inactive)	> 100 µM (inactive)	> 100 µM (inactive)	> 100 µM (inactive)	> 100 µM (inactive)	81.1 µM (inactive)	56 µM (inactive)	> 100 µM (inactive)	26.7 µM (inactive)	> 100 µM (inactive)	> 100 µM (inactive)	> 100 µM (inactive)	> 100 µM (inactive)	–	> 100 µM (inactive)	61 µM (inactive)	–	–	–	–
C/C=C/CP(=O)(c1ccccc1)c1ccccc1	> 100 µM (inactive)	> 100 µM (inactive)	> 100 µM (inactive)	> 100 µM (inactive)	> 100 µM (inactive)	> 100 µM (inactive)	–	> 100 µM (inactive)	> 100 µM (inactive)	> 100 µM (inactive)	> 100 µM (inactive)	–	> 100 µM (inactive)	–	> 100 µM (inactive)	> 100 µM (inactive)	–	–	–	–
Cc1ccc(C)c(C(=N)c2ccccc2Cc2ccccc2)c1	17 µM (inactive)	15.1 µM (inactive)	14.2 µM (inactive)	12.6 µM (inactive)	–	42.6 µM (inactive)	18.6 µM (inactive)	15.5 µM (inactive)	26.9 µM (inactive)	24.2 µM (inactive)	13.3 µM (inactive)	22.6 µM (inactive)	13 µM (inactive)	17 µM (inactive)	17.9 µM (inactive)	13.2 µM (inactive)	17.9 µM (inactive)	5.42 µM (inactive)	32.7 µM (inactive)	22.8 µM (inactive)
Cc1cc(-c2nc3cc(F)c(F)cc3s2)ccc1N	> 65.2 µM (inactive)	> 49.9 µM (inactive)	> 100 µM (inactive)	> 55.6 µM (inactive)	–	> 59.2 µM (inactive)	> 100 µM (inactive)	64 µM (inactive)	> 70.6 µM (inactive)	> 55.5 µM (inactive)	> 50.5 µM (inactive)	> 45 µM (inactive)	> 100 µM (inactive)	> 100 µM (inactive)	> 42.5 µM (inactive)	48.6 µM (inactive)	> 55.3 µM (inactive)	61.1 µM (inactive)	> 100 µM (inactive)	> 100 µM (inactive)
CC1=NOC(C)(O)/C1=N/O (stereo not drawn)	> 100 µM (inactive)	> 100 µM (inactive)	> 100 µM (inactive)	> 100 µM (inactive)	–	> 100 µM (inactive)	> 100 µM (inactive)	> 100 µM (inactive)	> 100 µM (inactive)	> 100 µM (inactive)	> 100 µM (inactive)	> 100 µM (inactive)	> 100 µM (inactive)	> 100 µM (inactive)	> 100 µM (inactive)	> 100 µM (inactive)	> 100 µM (inactive)	> 100 µM (inactive)	> 100 µM (inactive)	> 100 µM (inactive)
COc1cccc2c1C(=O)c1c(O)c3c(c(O)c1C2=O)C[C@@](O)(C(=O)CO)CC3OC1CC(NCCCCC(OC(C)=O)OC(C)=O)C(O)C(C)O1 (stereo partly drawn)	0.00298 µM (active)	0.00235 µM (active)	0.00182 µM (active)	–	0.00342 µM (active)	0.00329 µM (active)	0.00313 µM (active)	–	–	0.00243 µM (active)	0.00349 µM (active)	0.00251 µM (active)	0.0048 µM (active)	0.0032 µM (active)	0.00197 µM (active)	0.0015 µM (active)	–	–	–	–
CC1=C2C(O)C(C(C)CO)C(O)CC2(C)C(O)CC1 (stereo not drawn)	> 100 µM (inactive)	> 100 µM (inactive)	> 100 µM (inactive)	> 100 µM (inactive)	> 100 µM (inactive)	> 100 µM (inactive)	> 100 µM (inactive)	> 100 µM (inactive)	–	> 100 µM (inactive)	> 100 µM (inactive)	> 100 µM (inactive)	> 100 µM (inactive)	> 100 µM (inactive)	–	> 100 µM (inactive)	–	–	–	–
c1ccc2c3ccn4ccc5c6ccccc6[nH]c5c4c-3nc2c1	0.163 µM (active)	1.42 µM (inactive)	1.77 µM (inactive)	0.306 µM (active)	–	1.49 µM (inactive)	1.24 µM (inactive)	1.46 µM (inactive)	1.69 µM (inactive)	0.745 µM (active)	0.236 µM (active)	1.42 µM (inactive)	1.65 µM (inactive)	1.43 µM (inactive)	0.201 µM (active)	1.46 µM (inactive)	1.45 µM (inactive)	1.6 µM (inactive)	1.77 µM (inactive)	0.329 µM (active)
C=C(C)C(=O)O[C@@H]1C/C(C)=C\[C@H](OC(C)=O)C[C@](C)(O)/C=C2/OC(=O)C(COC(C)=O)=C21	1.09 µM (active)	0.428 µM (active)	0.692 µM (active)	0.394 µM (active)	–	12.3 µM (inactive)	0.668 µM (active)	1.09 µM (active)	1.77 µM (inactive)	2.95 µM (inactive)	0.726 µM (active)	0.329 µM (active)	0.274 µM (active)	0.437 µM (active)	0.122 µM (active)	0.196 µM (active)	0.845 µM (active)	2.15 µM (inactive)	1.37 µM (inactive)	0.662 µM (active)
